The test system of this data set is subcutaneous tissue. To be noted: dog, in vivo. The protocol:
The adaptability to an organism was tested in respect of the medical adhesive according to one embodiment of the present invention.
Three incision each having a length of 2 cm in the direction of the body axis were formed on the back of a dog anesthetized with acepromazine (0.5 mg/Kg) and pentobarbital (25 mg/Kg), and each of the subcutaneous regions of the incision portions was enlarged with scissors so as to have a diameter of about 2 cm.
Three kinds of treatments (A), (B) and (C) given below were applied to each of the incision portions:
(A) Dimethyl sulfoxide used as a reference substance was injected in an amount of 0.5 ml, and irradiation with an ultraviolet ray was not performed.
(B) The adhesive was injected in an amount of 0.5 ml, and irradiation with an ultraviolet ray was not performed.
(C) The adhesive was injected in an amount of 0.5 ml, and irradiation with an ultraviolet ray was performed.
One week later, each portion was collected under a general anesthesia so as to carry out the histological analysis.

As to `C[S+](C)[O-]` [(A) reference, Dimethyl sulfoxide], the “Adaptability to organism (recognition as foreign matter)” value is listed as “recognized as a foreign matter within the organism”; the Clinical inflammation reaction entry is reported as “not recognized”; the “Inflammation reaction, histological” value is on record as “prominent histologically”. Moreover, under “sc”, the “Clinical inflammation reaction (pain), Second day” value is recorded as “±” and the “Clinical inflammation reaction (pain), Third day” value is reported as “−”.

Source of the values: patent publication US20050112182A1, “Medical adhesive and medical covering agent using ultraviolet ray curable chitosan derivative” (priority 2003, published 2005).
